Measured values: US11306078B2, “Piperidine CXCR7 receptor modulators” (IDORSIA PHARMACEUTICALS LTD., priority 2016, dated 2022)

Target: human chemokine receptor CXCR7 (Homo sapiens (Human), UniProt P25106)
Assay: Tango CXCR7-bla U2OS beta-arrestin recruitment assay (beta-lactamase reporter, FRET), antagonism of CXCL12/SDF1-α;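 further: compounds preincubated 15 min before CXCL12 addition, then 22 h at 37 °C, FRET emission ratio read with CCF4-AM substrate after 2 h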
Assay type: cell-based
Settings: antagonistic effect on CXCR7; Tango CXCR7-bla U2OS cells, CXCL12/SDF1-α at its EC80

Chain of human chemokine receptor CXCR7 (P25106 whole entry): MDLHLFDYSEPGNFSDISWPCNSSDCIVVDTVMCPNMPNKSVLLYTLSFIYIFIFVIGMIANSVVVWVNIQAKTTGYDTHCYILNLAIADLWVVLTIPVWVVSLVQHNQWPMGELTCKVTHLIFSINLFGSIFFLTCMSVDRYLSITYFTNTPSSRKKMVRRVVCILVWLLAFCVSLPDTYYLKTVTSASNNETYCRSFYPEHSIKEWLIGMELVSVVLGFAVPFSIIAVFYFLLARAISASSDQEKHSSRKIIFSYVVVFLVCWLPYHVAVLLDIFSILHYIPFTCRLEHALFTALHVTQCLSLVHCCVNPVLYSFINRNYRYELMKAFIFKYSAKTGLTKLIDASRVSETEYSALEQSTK

SMILES | IC50 [nM]
C[C@@H]1CCC[C@H]1N1CC[C@@H](NC(=O)c2cc(-c3c(F)cc(F)cc3F)on2)[C@H](C(=O)N[C@H](C)c2ccccn2)C1 (relative stereo) [Example 1.124, (3R*,4R*)-1-((1RS,2RS)-2-Methyl-cyclopentyl)-4-{[5-(2,4,6-trifluoro-phenyl)-isoxazole-3-carbonyl]-amino}-piperidine-3-carboxylic acid ((R)-1-pyridin-2-yl-ethyl)-amide] | 16
C[C@@H](NC(=O)[C@@H]1CN(C2CCCCC2)CC[C@H]1NC(=O)c1cc(-c2ccc(F)cc2F)no1)c1ccccn1 (relative stereo) [Example 1.125, (3R*,4R*)-1-Cyclohexyl-4-{[3-(2,4-difluoro-phenyl)-isoxazole-5-carbonyl]-amino}-piperidine-3-carboxylic acid ((R)-1-pyridin-2-yl-ethyl)-amide] | 81
C[C@@H](NC(=O)[C@@H]1CN(C2CCCC2)CC[C@H]1NC(=O)c1cc(-c2ccc(F)cc2F)no1)c1ccccn1 (relative stereo) [Example 1.126, (3R*,4R*)-1-Cyclopentyl-4-{[3-(2,4-difluoro-phenyl)-isoxazole-5-carbonyl]-amino}-piperidine-3-carboxylic acid ((R)-1-pyridin-2-yl-ethyl)-amide] | 49
C[C@@H](NC(=O)[C@@H]1CN(C2CCCCC2)CC[C@H]1NC(=O)c1cn(-c2ccc(F)cc2F)nn1)c1cnccn1 (relative stereo) [Example 1.127, (3R*,4R*)-1-Cyclohexyl-4-{[1-(2,4-difluoro-phenyl)-1H-[1,2,3]triazole-4-carbonyl]-amino}-piperidine-3-carboxylic acid ((R)-1-pyrazin-2-yl-ethyl)-amide] | 360
C[C@@H](NC(=O)[C@@H]1CN(C2CCCC2)CC[C@H]1NC(=O)c1cn(-c2ccc(F)cc2F)nn1)c1cnccn1 (relative stereo) [Example 1.128, (3R*,4R*)-1-Cyclopentyl-4-{[1-(2,4-difluoro-phenyl)-1H-[1,2,3]triazole-4-carbonyl]-amino}-piperidine-3-carboxylic acid ((R)-1-pyrazin-2-yl-ethyl)-amide] | 124
C[C@@H](NC(=O)[C@@H]1CN(CC2CC2)CC[C@H]1NC(=O)c1cc(-c2c(F)cc(F)cc2F)on1)c1cnccn1 (relative stereo) [Example 1.131, (3R*,4R*)-1-Cyclopropylmethyl-4-{[5-(2,4,6-trifluoro-phenyl)-isoxazole-3-carbonyl]-amino}-piperidine-3-carboxylic acid ((R)-1-pyrazin-2-yl-ethyl)-amide] | 102
C[C@@H]1CCC[C@H]1N1CC[C@@H](NC(=O)c2cc(-c3c(F)cc(F)cc3F)on2)[C@H](C(=O)N[C@H](C)c2cnccn2)C1 (relative stereo) [Example 1.132, (3R*,4R*)-1-((1RS,2RS)-2-Methyl-cyclopentyl)-4-{[5-(2,4,6-trifluoro-phenyl)-isoxazole-3-carbonyl]-amino}-piperidine-3-carboxylic acid ((R)-1-pyrazin-2-yl-ethyl)-amide] | 410
C[C@@H](NC(=O)[C@@H]1CN(C2CCCCC2)CC[C@H]1NC(=O)c1cc(-c2ccc(F)cc2F)no1)c1cnccn1 (relative stereo) [Example 1.133, (3R*,4R*)-1-Cyclohexyl-4-{[3-(2,4-difluoro-phenyl)-isoxazole-5-carbonyl]-amino}-piperidine-3-carboxylic acid ((R)-1-pyrazin-2-yl-ethyl)-amide] | 594
C[C@@H](NC(=O)[C@@H]1CN(C2CCCCC2)CC[C@H]1NC(=O)c1cn(-c2ccc(F)cc2F)nn1)C1CCC1 (relative stereo) [Example 1.134, (3R*,4R*)-1-Cyclohexyl-4-{[1-(2,4-difluoro-phenyl)-1H-[1,2,3]triazole-4-carbonyl]-amino}-piperidine-3-carboxylic acid ((R)-1-cyclobutyl-ethyl)-amide] | 266
C[C@@H](NC(=O)[C@@H]1CN(C2CCCC2)CC[C@H]1NC(=O)c1cn(-c2ccc(F)cc2F)nn1)C1CCC1 (relative stereo) [Example 1.135, (3R*,4R*)-1-Cyclopentyl-4-{[1-(2,4-difluoro-phenyl)-1H-[1,2,3]triazole-4-carbonyl]-amino}-piperidine-3-carboxylic acid ((R)-1-cyclobutyl-ethyl)-amide] | 592
C[C@@H](NC(=O)[C@@H]1CN(CC2CC2)CC[C@H]1NC(=O)c1cn(-c2ccc(F)cc2F)nn1)C1CCC1 (relative stereo) [Example 1.136, (3R*,4R*)-1-Cyclopropylmethyl-4-{[1-(2,4-difluoro-phenyl)-1H-[1,2,3]triazole-4-carbonyl]-amino}-piperidine-3-carboxylic acid ((R)-1-cyclobutyl-ethyl)-amide] | 202
C[C@@H]1CCC[C@H]1N1CC[C@@H](NC(=O)c2cn(-c3ccc(F)cc3F)nn2)[C@H](C(=O)N[C@H](C)C2CCC2)C1 (relative stereo) [Example 1.137, (3R*,4R*)-4-{[1-(2,4-Difluoro-phenyl)-1H-[1,2,3]triazole-4-carbonyl]-amino}-1-((1RS,2RS)-2-Methyl-cyclopentyl)-piperidine-3-carboxylic acid ((R)-1-cyclobutyl-ethyl)-amide] | 919
C[C@@H](NC(=O)[C@@H]1CN(CC2CC2)CC[C@H]1NC(=O)c1cc(-c2c(F)cc(F)cc2F)on1)C1CCC1 (relative stereo) [Example 1.139, (3R*,4R*)-1-Cyclopropylmethyl-4-{[5-(2,4,6-trifluoro-phenyl)-isoxazole-3-carbonyl]-amino}-piperidine-3-carboxylic acid ((R)-1-cyclobutyl-ethyl)-amide] | 50
C[C@@H](NC(=O)[C@@H]1CN(C2CCCC2)CC[C@H]1NC(=O)c1cc(-c2ccc(F)cc2F)no1)C1CCC1 (relative stereo) [Example 1.141, (3R*,4R*)-1-Cyclopentyl-4-{[3-(2,4-difluoro-phenyl)-isoxazole-5-carbonyl]-amino}-piperidine-3-carboxylic acid ((R)-1-cyclobutyl-ethyl)-amide] | 379
C[C@@H](NC(=O)[C@@H]1CN(CC2CC2)CC[C@H]1NC(=O)c1cc(-c2ccc(F)cc2F)no1)c1ccccn1 (relative stereo) [Example 1.154, (3R*,4R*)-1-Cyclopropylmethyl-4-{[3-(2,4-difluoro-phenyl)-isoxazole-5-carbonyl]-amino}-piperidine-3-carboxylic acid ((R)-1-pyridin-2-yl-ethyl)-amide] | 54
C[C@@H]1CCC[C@H]1N1CC[C@@H](NC(=O)c2cc(-c3ccc(F)cc3F)no2)[C@H](C(=O)N[C@H](C)c2ccccn2)C1 (relative stereo) [Example 1.155, (3R*,4R*)-4-{[3-(2,4-Difluoro-phenyl)-isoxazole-5-carbonyl]-amino}-1-((1RS,2RS)-2-methyl-cyclopentyl)-piperidine-3-carboxylic acid ((R)-1-pyridin-2-yl-ethyl)-amide] | 315
C[C@@H](NC(=O)[C@@H]1CN(C2CCCCC2)CC[C@H]1NC(=O)c1noc(-c2ccc(F)cc2F)n1)c1ccccn1 (relative stereo) [Example 1.156, (3R*,4R*)-1-Cyclohexyl-4-{[5-(2,4-difluoro-phenyl)-[1,2,4]oxadiazole-3-carbonyl]-amino}-piperidine-3-carboxylic acid ((R)-1-pyridin-2-yl-ethyl)-amide] | 92
C[C@@H](NC(=O)[C@@H]1CN(C2CCCC2)CC[C@H]1NC(=O)c1noc(-c2ccc(F)cc2F)n1)c1ccccn1 (relative stereo) [Example 1.157, (3R*,4R*)-1-Cyclopentyl-4-{[5-(2,4-difluoro-phenyl)-[1,2,4]oxadiazole-3-carbonyl]-amino}-piperidine-3-carboxylic acid ((R)-1-pyridin-2-yl-ethyl)-amide] | 131
C[C@@H](NC(=O)[C@@H]1CN(CC2CC2)CC[C@H]1NC(=O)c1noc(-c2ccc(F)cc2F)n1)c1ccccn1 (relative stereo) [Example 1.158, (3R*,4R*)-1-Cyclopropylmethyl-4-{[5-(2,4-difluoro-phenyl)-[1,2,4]oxadiazole-3-carbonyl]-amino}-piperidine-3-carboxylic acid ((R)-1-pyridin-2-yl-ethyl)-amide] | 82
C[C@@H](NC(=O)[C@@H]1CN(CC2CC2)CC[C@H]1NC(=O)c1cc(-c2ccc(F)cc2F)no1)c1cnccn1 (relative stereo) [Example 1.159, (3R*,4R*)-1-Cyclopropylmethyl-4-{[3-(2,4-difluoro-phenyl)-isoxazole-5-carbonyl]-amino}-piperidine-3-carboxylic acid ((R)-1-pyrazin-2-yl-ethyl)-amide] | 818
C[C@@H](NC(=O)[C@@H]1CN(CC2CC2)CC[C@H]1NC(=O)c1cc(-c2ccc(F)cc2F)no1)C1CCC1 (relative stereo) [Example 1.161, (3R*,4R*)-1-Cyclopropylmethyl-4-{[3-(2,4-difluoro-phenyl)-isoxazole-5-carbonyl]-amino}-piperidine-3-carboxylic acid ((R)-1-cyclobutyl-ethyl)-amide] | 105
C[C@@H]1CCC[C@H]1N1CC[C@@H](NC(=O)c2cc(-c3ccc(F)cc3F)no2)[C@H](C(=O)N[C@H](C)C2CCC2)C1 (relative stereo) [Example 1.162, (3R*,4R*)-4-{[3-(2,4-Difluoro-phenyl)-isoxazole-5-carbonyl]-amino}-1-((1RS,2RS)-2-Methyl-cyclopentyl)-piperidine-3-carboxylic acid ((R)-1-cyclobutyl-ethyl)-amide] | 638
C[C@@H]1CCC[C@H]1N1CC[C@@H](NC(=O)c2cn(-c3ccc(F)cc3F)nn2)[C@H](C(=O)NC2(c3ccccn3)CC2)C1 (relative stereo) [Example 1.168, (3R*,4R*)-4-{[1-(2,4-Difluoro-phenyl)-1H-[1,2,3]triazole-4-carbonyl]-amino}-1-((1RS,2RS)-2-Methyl-cyclopentyl)-piperidine-3-carboxylic acid (1-pyridin-2-yl-cyclopropyl)-amide] | 728
